Patent US20110045101A1, “FUNGICIDAL SUBSTITUTED AZOLES” (E.I. Du Pont De Nemours and Company, priority 2009, published 2011)
Marks after values point to notes of the source that are not given here.

Key:
Format in all cases: in vivo
Conditions in all cases: 100 = 100% disease control
[1] = test system: Septoria tritici; test: Test G: wheat leaf blotch on wheat seedlings, sprayed the day before inoculation, visual disease rating
Procedure, shortened: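 Compounds dissolved in acetone (3% of final volume), then suspended in 50/50 acetone/water with 250 ppm Trem® 014 and sprayed to run-off on seedlings at 200 ppm (≈500 g/ha) or 40 ppm where marked. Inoculation with spores followed next day; visual rating after 48 h saturated at 24° C plus 19 days at 20° C.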

[2] = test system: Erysiphe graminis f. sp. tritici; test: Test J: wheat powdery mildew on wheat seedlings, sprayed the day before inoculation, visual disease rating
Procedure, shortened: (§1)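 Compounds were dissolved in acetone (3% of final volume), then suspended in 50/50 acetone/water with 250 ppm Trem 014 surfactant and sprayed to run-off on test plants. A 200 ppm suspension equals 500 g/ha. Ratings are at 200 ppm unless flagged as 40 ppm.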

[3] = test system: Alternaria solani; test: Test D: tomato early blight, sprayed the day before inoculation, visual disease rating
Procedure, shortened: as §1

[4] = test system: Botrytis cinerea; test: Test C: tomato Botrytis on tomato seedlings, sprayed the day before inoculation, visual disease rating
Procedure, shortened: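 Tomato seedlings sprayed to run-off with compound suspended in acetone/water with 250 ppm Trem 014 surfactant, at 200 ppm (≈500 g/ha) or 40 ppm where marked, one day before Botrytis cinerea inoculation. Disease rated visually.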

[5] = test system: Septoria nodorum; test: Test F: wheat glume blotch on wheat seedlings, sprayed the day before inoculation, visual disease rating
Procedure, shortened: as §1

[6] = test system: Puccinia recondita f. sp. tritici; test: Test H: wheat leaf rust, test suspension sprayed after inoculation of wheat seedlings, visual disease rating
Procedure, shortened: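 Wheat seedlings inoculated with P. recondita spores, held 24 h saturated at 20 °C, then 2 days in growth chamber at 20 °C; compound suspension (acetone/water with Trem 014) sprayed to run-off afterwards. Rated visually; 200 ppm (≈500 g/ha) unless marked *, which denotes 40 ppm.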

[7] = test system: Puccinia recondita f. sp. tritici; test: Test I: wheat leaf rust on wheat seedlings, sprayed the day before inoculation, visual disease rating
Procedure, shortened: as §1

[8] = 200 ppm, 0 = no control relative to controls
[9] = 40 ppm (marked *), 0 = no control

SMILES	Test G disease control rating [1, 8] [%]	Test J disease control rating [2, 8] [%]	Test D disease control rating [3, 8] [%]	Test C disease control rating [4, 8] [%]	Test F disease control rating [5, 8] [%]	Test H disease control rating [6, 8] [%]	Test I disease control rating [7, 8] [%]	Test G disease control rating [1, 9]	Test J disease control rating [2, 9]	Test D disease control rating [3, 9]	Test C disease control rating [4, 9]	Test F disease control rating [5, 9]	Test H disease control rating [6, 9]	Test I disease control rating [7, 9]
Fc1cccc(-n2c(Br)nc(Cl)c2-c2c(F)ccc(F)c2F)c1 [compound 368]	92	96	100	99	0	0	99							
Cc1nc(Cl)c(-c2c(F)ccc(F)c2F)n1-c1cccc(F)c1 [compound 369]	92	99	100	99	98	74	99							
Cc1nc(Cl)c(-c2c(F)cc(F)cc2F)n1-c1cccc(F)c1 [compound 370]	89	100	100	99	87	100	100							
Cn1c(-c2c(Br)nc(Br)n2-c2ccc(Cl)cc2)nc(Br)c1Br [compound 372]	91	0	0	99	0	0	74							
COc1cc(F)c(-n2c(Br)nc(Cl)c2-c2ccc(Cl)cc2)c(F)c1 [compound 373]								92* %	99* %	98* %	99* %	60* %	0* %	95* %
Fc1ccc(F)c(-c2c(Br)nc(Br)n2-c2ccc(Cl)cc2)c1Cl [compound 374]	94	98	99	99	0	0	90							
Cc1cccc(-c2c(C)ncn2-c2ccc(Cl)c(F)c2)n1 [compound 375]	92	62	26	99	0	32	68							
Cc1ncn(-c2ccc(Cl)c(F)c2)c1-c1scnc1Cl [compound 376]	78	67	0	90	0	0	54							
Cc1ncn(-c2ccc(Cl)c(F)c2)c1-c1sc(Cl)nc1Cl [compound 377]	3	33	0	0	0	0	27							
Cc1cccc(-c2c(C)nc(Cl)n2-c2ccc(Cl)c(F)c2)n1 [compound 378]	93	75	0	100	0	0	74							
Cc1cccc(-c2c(CCl)nc(Cl)n2-c2ccc(Cl)c(F)c2)n1 [compound 379]	86	0	0	99	0	0	27							
